Experimental data: PMC9496400, “Structural Comparison of hMDH2 Complexed with Natural Substrates and Cofactors: The Importance of Phosphate Binding for Active Conformation and Catalysis” (Biomolecules, 2022)
Each block holds one compound with its values, some of them ahead of it.

How the values were obtained:
Format in all cases: binding
[1] = target: T1, human mitochondrial malate dehydrogenase (hMDH2) (Homo sapiens, UniProt P40926); test: crystal structure ([…] Å; also with NAD, 4WLU, […] Å)
T1 construct: gene MDH2
T1 sequence (P40926 19-338): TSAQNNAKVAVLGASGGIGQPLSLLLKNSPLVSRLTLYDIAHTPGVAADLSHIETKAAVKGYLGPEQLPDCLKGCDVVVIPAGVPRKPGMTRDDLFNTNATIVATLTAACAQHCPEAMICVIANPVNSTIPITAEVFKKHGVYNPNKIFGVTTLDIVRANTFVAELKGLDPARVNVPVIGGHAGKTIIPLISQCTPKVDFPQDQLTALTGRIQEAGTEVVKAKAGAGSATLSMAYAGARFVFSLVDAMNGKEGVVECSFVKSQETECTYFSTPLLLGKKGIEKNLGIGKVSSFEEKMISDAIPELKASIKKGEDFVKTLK

[2] = target: T1, human mitochondrial malate dehydrogenase (hMDH2); test: ITC direct titration; crystal structure with oxaloacetate
[3] = target: T1, human mitochondrial malate dehydrogenase (hMDH2); test: crystal structure ([…] Å); competitive replacement ITC with NADH
[4] = target: T1, human mitochondrial malate dehydrogenase (hMDH2); test: crystal structure ([…] Å)
[5] = target: T1, human mitochondrial malate dehydrogenase (hMDH2); test: crystal structure of the ternary complex with NADH ([…] Å)
[6] = target: T1, human mitochondrial malate dehydrogenase (hMDH2); test: crystal structure ([…] Å); enzyme activity increased by phosphate

Structure (SMILES): O=C(O)C[C@H](O)C(=O)O [L-malate]
- crystal structure (2.20 Å; also with NAD, 4WLU, 2.14 Å) [1]: Both L-malate and citrate bound in the same site of hMDH2 and formed hydrogen bonds with the surrounding residues

- Kd [2]: 3.05 µM
Structure (SMILES): NC(=O)C1=CN([C@@H]2O[C@H](COP(=O)(O)OP(=O)(O)OC[C@H]3O[C@@H](n4cnc5c(N)ncnc54)[C@H](O)[C@@H]3O)[C@@H](O)[C@H]2O)C=CC1 [NADH]

- Kd [3]: 2310 µM
Structure (SMILES): NC(=O)c1ccc[n+]([C@@H]2O[C@H](COP(=O)([O-])OP(=O)(O)OC[C@H]3O[C@@H](n4cnc5c(N)ncnc54)[C@H](O)[C@@H]3O)[C@@H](O)[C@H]2O)c1 [NAD]

Structure (SMILES): O=C(O)CC(O)(CC(=O)O)C(=O)O [citrate]
- crystal structure (1.90 Å) [4]: The citrate occupied the substrate binding site in the refined structure.

Structure (SMILES): O=C(O)CC(=O)C(=O)O [oxaloacetate]
- crystal structure of the ternary complex with NADH (2.50 Å) [5]: Arg104 paired with only one oxygen atom of oxaloacetate

Structure (SMILES): O=P(O)(O)O [phosphate]
- crystal structure (2.28 Å); enzyme activity increased by phosphate [6]: two phosphate ions were located in the substrate binding site and a third in the position of the ribose ring
